These results are taken from patent US6043241A, “Ketoacid endothelin antagonists” (Warner-Lambert Company, priority 1998, dated 2000).

Data set [1] concerns early cerebral vasospasm. The following applies: rat SAH; cited from earlier work.
Another data set relates to pulmonary hypertension. The settings on record: rat hypoxia model; cited from earlier work.
In data set [2] the test system is middle cerebral artery occlusion. The following applies: cats, IV; cited from earlier work.
In a further data set the target is T1, human ETA R (Homo sapiens, UniProt P25101).
T1 construct: expressed in transfected cells; host or cells: Ltk- cells (membranes)
T1 sequence (P25101 21-427): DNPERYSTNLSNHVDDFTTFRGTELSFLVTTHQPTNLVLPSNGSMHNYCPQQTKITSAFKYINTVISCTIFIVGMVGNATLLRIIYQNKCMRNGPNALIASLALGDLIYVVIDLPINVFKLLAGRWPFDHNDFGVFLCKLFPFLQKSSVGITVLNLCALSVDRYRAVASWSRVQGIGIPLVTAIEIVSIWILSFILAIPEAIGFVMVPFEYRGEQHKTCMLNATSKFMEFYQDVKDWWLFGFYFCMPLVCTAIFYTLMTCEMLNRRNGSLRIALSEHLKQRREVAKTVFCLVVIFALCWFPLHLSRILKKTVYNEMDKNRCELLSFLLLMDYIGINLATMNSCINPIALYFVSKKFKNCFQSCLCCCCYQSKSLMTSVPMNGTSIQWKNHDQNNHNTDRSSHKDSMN
In words: Competition radioligand binding assay, [125I]-ET-1, Ltk- cells expressing human ETA R (HERBA A). The settings on record: Ltk- cell membranes, 40 pM [125I]-ET-1, 2 hours at 37° C. As to the method: (§1) The following cultured cells were used in binding experiments: CHO-K1 cells expressing recombinant human ETB R (HERBA B), or Ltk^- cells expressing human ETA R (HERBA A). […] Membranes were prepared from cultured cells by lysing cells in cold lysis buffer (5 mM HEPES, 2 mM EDTA, pH 7.4) and homogenizing with a Dounce "A" homogenizer. All of the homogenates were centrifuged at 30,000×g for 20 minutes at 4° C. Membrane pellets were resuspended in cold buffer containing 20 mM Tris, 2 mM EDTA, 200 μM Pefablock, 10 μM phosphoramidon, 10 μM leupeptin, and 1 μM pepstatin (pH 7.4) and frozen at -80° C. until use. Radioligand and competing ligands were prepared in binding buffer containing 20 mM Tris, 2 mM EDTA, and 0.1% BSA.
(§2) The assay was terminated by filtration over Whatman GF/B filters that were presoaked with 50 mM Tris, pH 7.4, containing 0.2% BSA and 100 μM bacitracin. […] binding was defined as total binding minus nonspecific binding.

A further data set addresses T2, human ETB R (Homo sapiens, UniProt P24530).
T2 construct: expressed in transfected cells; host or cells: CHO-K1 cells (membranes)
T2 sequence (P24530 27-442): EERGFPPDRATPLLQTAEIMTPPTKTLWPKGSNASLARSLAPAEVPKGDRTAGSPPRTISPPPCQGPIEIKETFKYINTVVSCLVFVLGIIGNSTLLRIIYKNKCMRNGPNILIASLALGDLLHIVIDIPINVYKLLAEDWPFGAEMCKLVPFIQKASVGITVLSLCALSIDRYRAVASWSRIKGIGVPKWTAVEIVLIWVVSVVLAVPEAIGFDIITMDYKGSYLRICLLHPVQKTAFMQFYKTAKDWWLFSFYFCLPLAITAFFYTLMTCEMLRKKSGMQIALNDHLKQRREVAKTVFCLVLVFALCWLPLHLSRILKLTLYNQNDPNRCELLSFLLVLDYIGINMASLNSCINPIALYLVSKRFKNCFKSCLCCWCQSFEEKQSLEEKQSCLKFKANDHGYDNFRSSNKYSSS
In words: Competition radioligand binding assay, [125I]-ET-1, CHO-K1 cells expressing recombinant human ETB R (HERBA B). The following applies: CHO-K1 cell membranes, 40 pM [125I]-ET-1, 2 hours at 37° C. As to the method: as §1, §2

The subject of the next data set is neointima formation. The settings on record: rats, carotid artery balloon angioplasty; cited from earlier work.
The next data set deals with prostate smooth muscle. The settings on record: in vivo; cited from earlier work.
A further data set deals with chronic heart failure. The following applies: patients with chronic heart failure; cited from earlier work.
For a further data set, the system named is acute renal ischemia. The following applies: in vivo; cited from earlier work.
Data set [3] deals with ET-1-induced changes in gastric mucosal hemodynamics. The settings on record: in vivo; cited from earlier work.
Data set [4] has as its system early cerebral vasospasm. The settings on record: in vivo; cited from earlier work.
The subject of data set [5] is basilar artery vasoconstriction. The following applies: canine two-hemorrhage model of SAH, after 7 days; cited from earlier work.
For the next data set, the system named is small intestinal mucosa. The settings on record: rats, local intra-arterial; cited from earlier work.
In a further data set the test system is liver. The settings on record: cited from earlier work.
Data set [6] deals with isolated cerebral arterioles. The settings on record: cited from earlier work.

Where a SMILES comes first, the peptide text is derived from it. [ ]: non-standard residue; d: D form.

Consider `COc1cccc(Oc2c(NS(=O)(=O)c3ccc(C(C)(C)C)cc3)ncnc2OCCO)c1` [Ro 46-2005], for which, in the data set with early cerebral vasospasm [1], the “systemic arterial blood pressure” value was “no significant effect on systemic arterial blood pressure”. Take `COc1ccc(C2(O)OC(=O)C(c3ccc4c(c3)OCO4)=C2Cc2cc(OC)c(OC)c(OC)c2)cc1` (stereo not drawn) [PD 156707]: in the data set with pulmonary hypertension, the “increase in pulmonary vascular resistance and pulmonary arterial pressure” value (“increase” below) is “lowering the increase in pulmonary vascular resistance and pulmonary arterial pressure”. In addition, the “volume of ischemic damage in the cerebral hemisphere” value in data set [2] was “significantly reduced”. Usually IC50 stands for the point on the concentration scale where inhibition reaches its midpoint. Regarding `COc1ccc(C(=O)/C(Cc2cc(OC)c(OC)c(OC)c2)=C(/C(=O)O)c2ccc3c(c2)OCO3)cc1` [Example 1, (E)-2-Benzo[1,3]dioxol-5-yl-4-(4-methoxy-phenyl)-4-oxo-3-(3,4,5-trimethoxy-benzyl)-but-2-enoic acid], the results for the half-maximal inhibitory concentration (IC50) on human ETA R and on human ETB R were 65 nM and more than 2500 nM, respectively. For the compound `CCCOc1ccc2c(c1)[C@@H](c1ccc(OC)cc1OCC(=O)O)[C@H](C(=O)O)[C@H]2c1ccc2c(c1)OCO2` [SB 209670], the neointima formation result with neointima formation was “ameliorate neointima formation”. Consider `CCOc1ccc(C(=O)/C(Cc2cc(OC)c(OC)c(OC)c2)=C(/C(=O)O)c2cc(OC)c3c(c2)OCO3)cc1C` [Example 3], for which the IC50 at human ETA R is 70 nM; at human ETB R, more than 2500 nM. Regarding `COc1ccc(C2(O)OC(=O)C(c3ccc4c(c3)OCO4)=C2Cc2ccccc2)cc1` (stereo not drawn) [PD 155080], the “prostate smooth muscle function” value in the data set on prostate smooth muscle is reported as “mediate prostate smooth muscle function in vivo”. Consider `COc1ccccc1Oc1c(NS(=O)(=O)c2ccc(C(C)(C)C)cc2)nc(-c2ncccn2)nc1OCCO` [Bosentan], for which the cardiac performance result with chronic heart failure is “improve cardiac performance”. Moreover, the “increase” value with pulmonary hypertension was “lowering the increase in pulmonary vascular resistance and pulmonary arterial pressure”. Moreover, the “efficacy in models of acute renal ischemia” value with acute renal ischemia was “effective in models of acute renal ischemia”. Further, the “ET-1-induced changes in gastric mucosal hemodynamics and ET-1-induced gastric ulceration” value in data set [3] is on record as “antagonist toward the ET-1-induced changes in gastric mucosal hemodynamics as well as on ET-1-induced gastric ulceration”.

For `CC(C)C[C@@H]1NC(=O)[C@@H](C(C)C)NC(=O)[C@@H]2CCCN2C(=O)[C@@H](CC(=O)O)NC(=O)[C@@H](Cc2c[nH]c3ccccc23)NC1=O` [BQ-123] (cyclo(L[dW][dD]P[dV])), the “increase” value in the data set with pulmonary hypertension was “lowering the increase in pulmonary vascular resistance and pulmonary arterial pressure”. Besides, in the data set with early cerebral vasospasm [4], the “early cerebral vasospasm following SAH” value is given as “prevent early cerebral vasospasm”.

With FR 139317, in data set [5], the “vasoconstriction of the basilar artery” value was “significantly inhibited the vasoconstriction of the basilar artery”. As for endothelin, in the data set on small intestinal mucosa, the “small intestinal mucosal damage” value is “induce small intestinal mucosal damage in rats in a dose-dependent manner”. For the same compound, the “hepatic vasculature vasoconstriction and hepatic glucose output” value in the data set on liver is “sustained vasoconstriction of the hepatic vasculature and a significant increase in hepatic glucose output”. Also, the “vasoconstrictor action on isolated cerebral arterioles” value in data set [6] was “potent vasoconstrictor action”. On to `COc1ccc(/C(C(=O)O)=C(/Cc2ccc3c(c2)OCO3)C(=O)c2cc(OC)c(OC)c(OC)c2)cc1` [Example 2, (E)-3-Benzo[1,3]dioxol-5-ylmethyl-2-(4-methoxy-phenyl)-4-oxo-4-(3,4,5-trimethoxy-phenyl)-but-2-enoic acid], for which the results for the IC50 at human ETA R and at human ETB R were 58 nM and 10000 nM, respectively.
